Data from ChEMBL document CHEMBL1157917, “Structure-based rational design, synthesis and antifungal activity of oxime-containing azole derivatives” (2010).
Values after ≈ are worked out from the molar mass of the structure shown.

Key:
Type in all cases: functional
Candida albicans = test: Antifungal activity against Candida albicans after 24 hrs by serial dilution method
Trichophyton rubrum = test: Antifungal activity against Trichophyton rubrum after 7 days by serial dilution method; details: 168 h
Candida parapsilosis = test: Antifungal activity against Candida parapsilosis after 24 hrs by serial dilution method; details: Lodderomyces parapsilosis
Aspergillus fumigatus = test: Antifungal activity against Aspergillus fumigatus after 7 days by serial dilution method; details: 168 h
Pichia kudriavzevii = test: Antifungal activity against Candida krusei after 24 hrs by serial dilution method
Cryptococcus neoformans = test: Antifungal activity against Cryptococcus neoformans after 72 hrs by serial dilution method
Candida tropicalis = test: Antifungal activity against Candida tropicalis after 24 hrs by serial dilution method

SMILES	MIC80 (Candida albicans) [µg/mL]	MIC80 (Trichophyton rubrum) [µg/mL]	MIC80 (Candida parapsilosis) [µg/mL]	MIC80 (Aspergillus fumigatus) [µg/mL]	MIC80 (Pichia kudriavzevii) [µg/mL]	MIC80 (Cryptococcus neoformans) [µg/mL]	MIC80 (Candida tropicalis) [µg/mL]
ON=C1CCN(CC(O)(Cn2cncn2)c2ccc(F)cc2F)CC1 (configuration not stated)	1 (≈ 2.85 µM)	16 (≈ 45.5 µM)	16 (≈ 45.5 µM)	> 64	4 (≈ 11.4 µM)	1 (≈ 2.85 µM)	1 (≈ 2.85 µM)
OC(CN1CCC(=NOCc2cccc3ccccc23)CC1)(Cn1cncn1)c1ccc(F)cc1F (racemic)	0.0625 (≈ 0.127 µM)	0.25 (≈ 0.509 µM)	0.0625 (≈ 0.127 µM)	1 (≈ 2.03 µM)	4 (≈ 8.14 µM)	0.0625 (≈ 0.127 µM)	0.25 (≈ 0.509 µM)
OC(CN1CCC(=NOCc2ccc(Br)cc2)CC1)(Cn1cncn1)c1ccc(F)cc1F (racemic)	0.016 (≈ 0.0307 µM)	0.016 (≈ 0.0307 µM)	0.016 (≈ 0.0307 µM)	1 (≈ 1.92 µM)	0.25 (≈ 0.48 µM)	0.016 (≈ 0.0307 µM)	0.004 (≈ 0.00769 µM)
OC(CN1CCC(=NOCc2cccc(Br)c2)CC1)(Cn1cncn1)c1ccc(F)cc1F (racemic)	0.016 (≈ 0.0307 µM)	0.0625 (≈ 0.12 µM)	0.016 (≈ 0.0307 µM)	1 (≈ 1.92 µM)	0.25 (≈ 0.48 µM)	0.016 (≈ 0.0307 µM)	0.004 (≈ 0.00769 µM)
OC(CN1CCC(=NOCc2ccccc2Cl)CC1)(Cn1cncn1)c1ccc(F)cc1F (racemic)	0.016 (≈ 0.0336 µM)	0.0625 (≈ 0.131 µM)	0.004 (≈ 0.0084 µM)	1 (≈ 2.1 µM)	0.25 (≈ 0.525 µM)	0.016 (≈ 0.0336 µM)	0.016 (≈ 0.0336 µM)
OC(CN1CCC(=NOCc2ccccc2)CC1)(Cn1cncn1)c1ccc(F)cc1F (racemic)	0.004 (≈ 0.00906 µM)	0.0625 (≈ 0.142 µM)	0.004 (≈ 0.00906 µM)	1 (≈ 2.27 µM)	0.0625 (≈ 0.142 µM)	0.016 (≈ 0.0362 µM)	0.001 (≈ 0.00227 µM)
OC(CN1CCC(=NOCc2ccccc2Br)CC1)(Cn1cncn1)c1ccc(F)cc1F (racemic)	0.016 (≈ 0.0307 µM)	0.0625 (≈ 0.12 µM)	0.0625 (≈ 0.12 µM)	1 (≈ 1.92 µM)	0.25 (≈ 0.48 µM)	0.004 (≈ 0.00769 µM)	0.004 (≈ 0.00769 µM)
OC(CN1CCC(=NOCc2ccc(F)cc2)CC1)(Cn1cncn1)c1ccc(F)cc1F (racemic)	0.016 (≈ 0.0348 µM)	0.0625 (≈ 0.136 µM)	0.004 (≈ 0.00871 µM)	1 (≈ 2.18 µM)	0.25 (≈ 0.544 µM)	0.016 (≈ 0.0348 µM)	0.0097 (≈ 0.0211 µM)
OC(CN1CCC(=NOCc2cccc(F)c2)CC1)(Cn1cncn1)c1ccc(F)cc1F (racemic)	0.016 (≈ 0.0348 µM)	0.0625 (≈ 0.136 µM)	0.016 (≈ 0.0348 µM)	0.25 (≈ 0.544 µM)	0.25 (≈ 0.544 µM)	0.016 (≈ 0.0348 µM)	0.016 (≈ 0.0348 µM)
OC(CN1CCC(=NOCc2ccccc2F)CC1)(Cn1cncn1)c1ccc(F)cc1F (racemic)	0.016 (≈ 0.0348 µM)	0.0625 (≈ 0.136 µM)	0.0625 (≈ 0.136 µM)	1 (≈ 2.18 µM)	0.25 (≈ 0.544 µM)	0.004 (≈ 0.00871 µM)	0.001 (≈ 0.00218 µM)
OC(CN1CCC(=NOCc2ccc(Cl)cc2Cl)CC1)(Cn1cncn1)c1ccc(F)cc1F (racemic)	0.016 (≈ 0.0313 µM)	0.0625 (≈ 0.122 µM)	0.016 (≈ 0.0313 µM)	4 (≈ 7.84 µM)	0.25 (≈ 0.49 µM)	0.016 (≈ 0.0313 µM)	0.016 (≈ 0.0313 µM)
OC(CN1CCC(=NOCc2ccc(Cl)cc2)CC1)(Cn1cncn1)c1ccc(F)cc1F (racemic)	0.0625 (≈ 0.131 µM)	0.0625 (≈ 0.131 µM)	0.016 (≈ 0.0336 µM)	1 (≈ 2.1 µM)	0.25 (≈ 0.525 µM)	0.001 (≈ 0.0021 µM)	0.0625 (≈ 0.131 µM)
OC(CN1CCC(=NOCc2cccc(Cl)c2)CC1)(Cn1cncn1)c1ccc(F)cc1F (racemic)	0.016 (≈ 0.0336 µM)	0.016 (≈ 0.0336 µM)	0.0625 (≈ 0.131 µM)	1 (≈ 2.1 µM)	0.25 (≈ 0.525 µM)	0.001 (≈ 0.0021 µM)	0.0625 (≈ 0.131 µM)
Cc1ccc(CON=C2CCN(CC(O)(Cn3cncn3)c3ccc(F)cc3F)CC2)cc1 (racemic)	64 (≈ 141 µM)	16 (≈ 35.1 µM)	64 (≈ 141 µM)	64 (≈ 141 µM)	16 (≈ 35.1 µM)	16 (≈ 35.1 µM)	64 (≈ 141 µM)
C=Cc1ccc(CON=C2CCN(CC(O)(Cn3cncn3)c3ccc(F)cc3F)CC2)cc1 (racemic)	16 (≈ 34.2 µM)	16 (≈ 34.2 µM)	64 (≈ 137 µM)	64 (≈ 137 µM)	64 (≈ 137 µM)	16 (≈ 34.2 µM)	64 (≈ 137 µM)
OC(CN1CCC(=NOCc2ccc(C(F)(F)F)cc2)CC1)(Cn1cncn1)c1ccc(F)cc1F (racemic)	16 (≈ 31.4 µM)	16 (≈ 31.4 µM)	64 (≈ 126 µM)	64 (≈ 126 µM)	64 (≈ 126 µM)	16 (≈ 31.4 µM)	64 (≈ 126 µM)

SMILES	MIC80 (Candida albicans) [µg/mL]	MIC80 (Trichophyton rubrum) [µg/mL]	MIC80 (Candida parapsilosis) [µg/mL]	MIC80 (Aspergillus fumigatus) [µg/mL]	MIC80 (Pichia kudriavzevii) [µg/mL]	MIC80 (Cryptococcus neoformans) [µg/mL]	MIC80 (Candida tropicalis) [µg/mL]
COc1ccc(CON=C2CCN(CC(O)(Cn3cncn3)c3ccc(F)cc3F)CC2)cc1 (racemic)	1 (≈ 2.12 µM)	4 (≈ 8.48 µM)	4 (≈ 8.48 µM)	64 (≈ 136 µM)	4 (≈ 8.48 µM)	4 (≈ 8.48 µM)	4 (≈ 8.48 µM)
N#Cc1ccc(CON=C2CCN(CC(O)(Cn3cncn3)c3ccc(F)cc3F)CC2)cc1 (racemic)	0.0625 (≈ 0.134 µM)	0.0625 (≈ 0.134 µM)	0.0625 (≈ 0.134 µM)	1 (≈ 2.14 µM)	0.25 (≈ 0.536 µM)	0.016 (≈ 0.0343 µM)	0.0625 (≈ 0.134 µM)
OC(CN1CCC(=NOCc2cccc(C(F)(F)F)c2)CC1)(Cn1cncn1)c1ccc(F)cc1F (racemic)	16 (≈ 31.4 µM)	16 (≈ 31.4 µM)	64 (≈ 126 µM)	64 (≈ 126 µM)	64 (≈ 126 µM)	16 (≈ 31.4 µM)	64 (≈ 126 µM)
CCc1ccc(CON=C2CCN(CC(O)(Cn3cncn3)c3ccc(F)cc3F)CC2)cc1 (racemic)	16 (≈ 34.1 µM)	16 (≈ 34.1 µM)	64 (≈ 136 µM)	64 (≈ 136 µM)	64 (≈ 136 µM)	16 (≈ 34.1 µM)	64 (≈ 136 µM)
CCCc1ccc(CON=C2CCN(CC(O)(Cn3cncn3)c3ccc(F)cc3F)CC2)cc1 (racemic)	16 (≈ 33.1 µM)	4 (≈ 8.27 µM)	64 (≈ 132 µM)	64 (≈ 132 µM)	64 (≈ 132 µM)	16 (≈ 33.1 µM)	64 (≈ 132 µM)
Cc1ccccc1CON=C1CCN(CC(O)(Cn2cncn2)c2ccc(F)cc2F)CC1 (racemic)	16 (≈ 35.1 µM)	16 (≈ 35.1 µM)	64 (≈ 141 µM)	64 (≈ 141 µM)	64 (≈ 141 µM)	64 (≈ 141 µM)	64 (≈ 141 µM)
OC(CN1CCC(=NOCc2ccc(Cl)c(Cl)c2)CC1)(Cn1cncn1)c1ccc(F)cc1F (racemic)	0.25 (≈ 0.49 µM)	0.0625 (≈ 0.122 µM)	0.25 (≈ 0.49 µM)	1 (≈ 1.96 µM)	0.25 (≈ 0.49 µM)	0.0625 (≈ 0.122 µM)	0.25 (≈ 0.49 µM)
COc1cccc(CON=C2CCN(CC(O)(Cn3cncn3)c3ccc(F)cc3F)CC2)c1 (racemic)	16 (≈ 33.9 µM)	16 (≈ 33.9 µM)	64 (≈ 136 µM)	64 (≈ 136 µM)	64 (≈ 136 µM)	16 (≈ 33.9 µM)	64 (≈ 136 µM)
Cc1cccc(CON=C2CCN(CC(O)(Cn3cncn3)c3ccc(F)cc3F)CC2)c1 (racemic)	16 (≈ 35.1 µM)	16 (≈ 35.1 µM)	64 (≈ 141 µM)	64 (≈ 141 µM)	64 (≈ 141 µM)	16 (≈ 35.1 µM)	64 (≈ 141 µM)
O=[N+]([O-])c1ccc(CON=C2CCN(CC(O)(Cn3cncn3)c3ccc(F)cc3F)CC2)cc1 (racemic)	0.016 (≈ 0.0329 µM)	0.0625 (≈ 0.128 µM)	0.004 (≈ 0.00822 µM)	1 (≈ 2.06 µM)	0.25 (≈ 0.514 µM)	0.016 (≈ 0.0329 µM)	0.004 (≈ 0.00822 µM)
OC(CN1CCC(=NOCc2ccc3ccccc3c2)CC1)(Cn1cncn1)c1ccc(F)cc1F (racemic)	0.016 (≈ 0.0326 µM)	0.0625 (≈ 0.127 µM)	0.016 (≈ 0.0326 µM)	1 (≈ 2.03 µM)	0.25 (≈ 0.509 µM)	0.016 (≈ 0.0326 µM)	0.016 (≈ 0.0326 µM)
O=[N+]([O-])c1cccc(CON=C2CCN(CC(O)(Cn3cncn3)c3ccc(F)cc3F)CC2)c1 (racemic)	1 (≈ 2.06 µM)	0.25 (≈ 0.514 µM)	0.0625 (≈ 0.128 µM)	1 (≈ 2.06 µM)	1 (≈ 2.06 µM)	0.0625 (≈ 0.128 µM)	1 (≈ 2.06 µM)
OC(Cn1cncn1)(Cn1cncn1)c1ccc(F)cc1F [FLUCONAZOLE]	0.25 (≈ 0.816 µM)	1 (≈ 3.27 µM)	0.25 (≈ 0.816 µM)	> 64	1 (≈ 3.27 µM)	0.0625 (≈ 0.204 µM)	1 (≈ 3.27 µM)
CCC(C)n1ncn(-c2ccc(N3CCN(c4ccc(OCC5COC(Cn6cncn6)(c6ccc(Cl)cc6Cl)O5)cc4)CC3)cc2)c1=O (configuration not stated) [ITRACONAZOLE]	0.016 (≈ 0.0227 µM)	0.004 (≈ 0.00567 µM)	0.0625 (≈ 0.0886 µM)	1 (≈ 1.42 µM)	0.25 (≈ 0.354 µM)	0.004 (≈ 0.00567 µM)	0.0625 (≈ 0.0886 µM)
C[C@@H](c1ncncc1F)[C@](O)(Cn1cncn1)c1ccc(F)cc1F [VORICONAZOLE]	0.004 (≈ 0.0115 µM)	0.004 (≈ 0.0115 µM)	0.004 (≈ 0.0115 µM)	0.0625 (≈ 0.179 µM)	0.016 (≈ 0.0458 µM)	0.004 (≈ 0.0115 µM)	0.004 (≈ 0.0115 µM)
